In one data set the test system is rabbit wounds. The experiment in a line: Wound healing study in rabbits, 4×4 cm incision on the back. The data set is classed as in vivo, rabbits (New Zealand White). The source says:
(§1) For this study, 23 rabbits (New Zealand White) are taken and kept in a well-fed, healthy and aseptic condition to ensure the perfect outcome of the experimentation.
Nine randomly selected rabbits (New Zealand White) are taken and a 4×4 cm incision was made right on the back of the animals. Following the application of Anesthetic Ketamine (Aneket, Neon Laboratories, India). This has been followed by application of recombinant TGFα to the “treated” group, and application of placebo, wherein except the growth factor, all the other conditions of “treated” group is followed.
It is found to initiate cell proliferation in rabbit wounds within 7 days. […] Thus, the recombinant growth factor TGF α found to be suitable for enhancing the healing of chronic wounds.

A short description of data set [1]: Antimicrobial / sterility test on test material. The source says: On the safety side, recombinant TGF α passed the skin irritation test, sterility test and cytotoxicity tests, and found to be suitable for enhancing the healing of chronic wounds.
(§2) The declaration for skin irritation test is hereby made as the recombinant TGFα induced a total mean score of ‘0.55’ in test material and ‘◯’ in solvent following intra-dermal injection.

Another data set concerns L929 cells. The experiment in a line: MTT assay in L929 cells. Type of data set: cell-based. As to conditions: for cell viability: MTT, L929 cells. On the procedure:
Prior testing in said in vivo model, an in vitro testing for the metabolic activity has been performed through executing MTT assay in a specific cell line.
The MTT assay is carried out in L929 cells (ATCC, USA). […] 92.26%, 90.30% and 88.87% under these concentrations respectively. […] The results obtained are depicted in FIG. 3.

For data set [2], the system named is skin (intra-cutaneous reactions). More on the design: species or system rabbits (New Zealand White). As to conditions: rabbit, in vivo.
Source text: as §2, §1

A word on the cell viability: it is the share of living cells, or the viability signal relative to a control. A higher cell viability goes with less harm to the cells. Regarding “recombinant TGF α: recombinant TGF α of 51 amino acids (Sequence ID No.: 1), carved out of 160 amino acid TGF α, expressed in a prokaryotic system”, the “healing of chronic wounds” value in the data set with rabbit wounds (rabbit models) is “enhance the healing of chronic wounds”. Besides, in the data set on rabbit wounds (rabbit models, day 14), the “wound finding on 14th day” value is “tissue regeneration and formation of epithelial layer”. Moreover, the “time to initiation of cell proliferation in rabbit wounds” value with rabbit wounds (rabbit, 4×4 cm incision) is given as no more than 7 days. For the same substance, the “vasculature and inflammatory response of the healing wound” value in the data set on rabbit wounds (treated vs control, FIGS. 4C and 4T) was “higher number of vasculature and almost no inflammatory response”. In data set [1], the antimicrobial test outcome is given as “meeting the requirements for dermal applications” and the sterility test outcome is on record as “passed”. For the same substance, the cytotoxicity tests outcome in the data set with L929 cells was “passed”. In the data set on L929 cells (0.0025 μg/ml), this substance returned a cell viability of 92.16%. Also, the cell viability in the data set on L929 cells (0.025 μg/ml) was found to be 92.26%. Further, the cell viability with L929 cells (0.25 μg/ml) is given as 90.30%. This substance also showed a cell viability in the data set on L929 cells (2.5 μg/ml) of 88.87%. For the same substance, in data set [2], the “intra-cutaneous reactions (erythema and edema)” value is “No intra-cutaneous reactions such as erythema and edema”; the “skin irritation test outcome” value is given as “passed”; the “total mean score, skin irritation test” value is reported as 0.55.

The values are drawn from patent publication US20220177533A1, “Recombinant TGF a for wound healing purposes, and the process thereof” (SREE CHITRA TIRUNAL INSTITUTE FOR MEDICAL SCIENCES AND …, priority 2018, published 2022).
